The record followed here is patent US11331369B2, “Endoparasitic depsipeptides” (Zoetis Services LLC, priority 2017, dated 2022).

For data set [1], the system named is microfilariae of Dirofilaria immitis. Briefly: Dirofilaria immitis, Microfilaria (DiMF) In vitro Assay. Format: cell-based. The settings on record: 72 h, read-out: DiMF Minimum Effective Dose (MED), approximately 72 hours incubation, microfilariae assessed for survival or paralysis.
The nature of data set [2]: Canine pharmacokinetic (PK) study, single IV or oral dose. The settings on record: dog; for Vd / clearance / half-life / Cmax: in vivo; for Vd / clearance / half-life: iv, 0.2 mg/kg; for Cmax: po, 1 mg/kg; for F: oral 1 mg/kg.
Data set [3] concerns 4th stage larvae (L4) of Dirofilaria immitis. Briefly: Dirofilaria immitis, L4 Stage (DiL4) In Vitro Assay. It counts as cell-based. To be noted: Dirofilaria immitis, 72 h, read-out: DiL4 Minimum Effective Dose (MED), approximately 72 hours incubation; L4 larvae assessed for survival or paralysis.
The test system of data set [4] is third stage larvae of Haemonchus contortus. Briefly: Haemonchus contortus L3 (HcL3) Assay. It counts as cell-based. The settings on record: 96 h, read-out: HcL3 Minimum Effective Dose (MED).

Where only a bound is given, the exact number is not on record here.

For `CC(C)C[C@H]1C(=O)O[C@H](Cc2ccc(Cn3nc(C(F)(F)F)cc3C(F)(F)F)cc2)C(=O)N(C)[C@@H](CC(C)C)C(=O)O[C@H](C)C(=O)N(C)[C@@H](CC(C)C)C(=O)O[C@H](Cc2ccc(Cn3nc(C(F)(F)F)cc3C(F)(F)F)cc2)C(=O)N(C)[C@@H](CC(C)C)C(=O)O[C@H](C)C(=O)N1C` [Example 1b-15, (3S,6R,9S,12R,15S,18R,21S,24R)-6,18-bis[(4-{[3,5-bis(trifluoromethyl)-1H-pyrazol-1-yl]methyl}phenyl)methyl]-4,10,12,16,22,24-hexamethyl-3,9,15,21-tetrakis(2-methylpropyl)-1,7,13,19-tetraoxa-4,10,16,22-tetraazacyclotetracosan-2,5,8,11,14,17,20,23-octaone], the minimal effective concentration in data set [1] lay within 0.01 to 0.1 µM. Also, in data set [2], the Vd came to 0.32 L/kg, the clearance is 0.05 mL/min/kg, the half-life is 67 h and the Cmax amounted to 5 ng/mL. In data set [2], this compound returned an F of 0.2%. The minimal effective concentration in data set [3] was at most 0.0001 µM.
On to `CC(C)C[C@H]1C(=O)O[C@H](Cc2ccc(Cn3cc(OC(C)C)cn3)cc2)C(=O)N(C)[C@@H](CC(C)C)C(=O)O[C@H](C)C(=O)N(C)[C@@H](CC(C)C)C(=O)O[C@H](Cc2ccc(Cn3cc(OC(C)C)cn3)cc2)C(=O)N(C)[C@@H](CC(C)C)C(=O)O[C@H](C)C(=O)N1C` [Example 1b-19, (3S,6R,9S,12R,15S,18R,21S,24R)-3,9,15,21-tetraisobutyl-6,18-bis[[4-[(4-isopropoxypyrazol-1-yl)methyl]phenyl]methyl]-4,10,12,16,22,24-hexamethyl-1,7,13,19-tetraoxa-4,10,16,22-tetrazacyclotetracosane-2,5,8,11,14,17,20,23-octaone], for which the minimal effective concentration in data set [1] was 0.001 to 0.01 µM. For the same compound, in data set [4], the minimal effective concentration is 1 to 10 µM. In data set [2], this compound showed a Vd of 7.25 L/kg, a clearance of 2.4 mL/min/kg, a half-life of 87 h and a Cmax of 267 ng/mL. In data set [2], the F is recorded as 24%. For the same compound, the minimal effective concentration in data set [3] lay in the range of 0.001 to 0.01 µM.
For the compound `CCOc1cnn(Cc2ccc(C[C@H]3OC(=O)[C@H](CC(C)C)N(C)C(=O)[C@@H](C)OC(=O)[C@H](CC(C)C)N(C)C(=O)[C@@H](Cc4ccc(Cn5cc(OCC)cn5)cc4)OC(=O)[C@H](CC(C)C)N(C)C(=O)[C@@H](C)OC(=O)[C@H](CC(C)C)N(C)C3=O)cc2)c1` [Example 1b-21, (3S,6R,9S,12R,15S,18R,21S,24R)-6,18-bis[[4-[(4-ethoxypyrazol-1-yl)methyl]phenyl]methyl]-3,9,15,21-tetraisobutyl-4,10,12,16,22,24-hexamethyl-1,7,13,19-tetraoxa-4,10,16,22-tetrazacyclotetracosane-2,5,8,11,14,17,20,23-octaone], in data set [1], the minimal effective concentration lay in the range of 0.001 to 0.01 µM. Also, in data set [4], the minimal effective concentration lay within 1 to 10 µM. For the same compound, in data set [2], the Vd turned out to be 28.4 L/kg, the clearance stood at 15.5 mL/min/kg, the half-life is 36.1 h and the maximum concentration (Cmax) was 145 ng/mL. In data set [2], this compound gave an F of 78%. Also, in data set [3], the minimal effective concentration fell in the range of 0.0001 to 0.001 µM.
With `CC(C)C[C@H]1C(=O)O[C@H](Cc2ccc(Cn3cccn3)cc2)C(=O)N(C)[C@@H](CC(C)C)C(=O)O[C@H](C)C(=O)N(C)[C@@H](CC(C)C)C(=O)O[C@H](Cc2ccc(Cn3cccn3)cc2)C(=O)N(C)[C@@H](CC(C)C)C(=O)O[C@H](C)C(=O)N1C` [Example 1b-23, (3S,6R,9S,12R,15S,18R,21S,24R)-3,9,15,21-tetraisobutyl-4,6,10,16,18,22-hexamethyl-12,24-bis[[4-(pyrazol-1-ylmethyl)phenyl]methyl]-1,7,13,19-tetraoxa-4,10,16,22-tetrazacyclotetracosane-2,5,8,11,14,17,20,23-octaone], in data set [4], the minimal effective concentration is at most 1 µM. In data set [2], this compound had a Vd of 8.54 L/kg, a clearance of 14 mL/min/kg, a half-life of 27 h and a Cmax of 205 ng/mL. Also, in data set [2], the F is recorded as 34%. The minimal effective concentration in data set [3] is 0.0001 to 0.001 µM.
For `CC(C)C[C@H]1C(=O)O[C@H](Cc2ccc(Cn3ccc(-c4ccccc4)n3)cc2)C(=O)N(C)[C@@H](CC(C)C)C(=O)O[C@H](C)C(=O)N(C)[C@@H](CC(C)C)C(=O)O[C@H](Cc2ccc(Cn3ccc(-c4ccccc4)n3)cc2)C(=O)N(C)[C@@H](CC(C)C)C(=O)O[C@H](C)C(=O)N1C` [Example 1b-68, (3S,6R,9S,12R,15S,18R,21S,24R)-3,9,15,21-tetraisobutyl-4,6,10,16,18,22-hexamethyl-12,24-bis(4-((3-phenyl-1H-pyrazol-1-yl)methyl)benzyl)-1,7,13,19-tetraoxa-4,10,16,22-tetraazacyclotetracosan-2,5,8,11,14,17,20,23-octaone], in data set [2], the Vd came to 7.58 L/kg, the clearance amounted to 1 mL/min/kg, the half-life was 163 h and the highest concentration (Cmax) came to 39 ng/mL. Also, in data set [2], the F is 4%. The minimal effective concentration in data set [3] was 0.001 to 0.01 µM.
Take `CC(C)C[C@H]1C(=O)O[C@H](Cc2ccc(Cn3ccc(C(F)(F)F)n3)cc2)C(=O)N(C)[C@@H](CC(C)C)C(=O)O[C@H](C)C(=O)N(C)[C@@H](CC(C)C)C(=O)O[C@H](Cc2ccc(Cn3ccc(C(F)(F)F)n3)cc2)C(=O)N(C)[C@@H](CC(C)C)C(=O)O[C@H](C)C(=O)N1C` [Example 1b-69, (3S,6R,9S,12R,15S,18R,21S,24R)-3,9,15,21-tetraisobutyl-4,6,10,16,18,22-hexamethyl-12,24-bis(4-((3-(trifluoromethyl)-1H-pyrazol-1-yl)methyl)benzyl)-1,7,13,19-tetraoxa-4,10,16,22-tetraazacyclotetracosan-2,5,8,11,14,17,20,23-octaone]: the minimal effective concentration in data set [1] lay within 0.01 to 0.1 µM. Besides, in data set [2], the Vd stood at 3.81 L/kg, the clearance was 1 mL/min/kg, the half-life is 256 h and the concentration peaked (Cmax) at 27 ng/mL. The same compound gave a F in data set [2] of 5%. For the same compound, the minimal effective concentration in data set [3] fell in the range of 0.001 to 0.01 µM.
For `CC(C)C[C@H]1C(=O)O[C@H](Cc2ccc(Cn3nccc3C3CC3)cc2)C(=O)N(C)[C@@H](CC(C)C)C(=O)O[C@H](C)C(=O)N(C)[C@@H](CC(C)C)C(=O)O[C@H](Cc2ccc(Cn3nccc3C3CC3)cc2)C(=O)N(C)[C@@H](CC(C)C)C(=O)O[C@H](C)C(=O)N1C` [Example 1b-108, (3S,6R,9S,12R,15S,18R,21S,24R)-6,18-bis(4-((5-cyclopropyl-1H-pyrazol-1-yl)methyl)benzyl)-3,9,15,21-tetraisobutyl-4,10,12,16,22,24-hexamethyl-1,7,13,19-tetraoxa-4,10,16,22-tetraazacyclotetracosan-2,5,8,11,14,17,20,23-octaone], the minimal effective concentration in data set [1] is 0.001 to 0.01 µM. In addition, the minimal effective concentration in data set [4] is at most 1 µM. Besides, in data set [2], the Vd amounted to 5.6 L/kg, the clearance is 6 mL/min/kg, the half-life is 51 h and the maximum concentration (Cmax) amounted to 178 ng/mL. The compound further gave a F in data set [2] of 30%. The minimal effective concentration in data set [3] is 0.0001 to 0.001 µM.
In data set [2], `CC(C)C[C@H]1C(=O)O[C@H](Cc2ccc(CN3CCOc4ccccc43)cc2)C(=O)N(C)[C@@H](CC(C)C)C(=O)O[C@H](C)C(=O)N(C)[C@@H](CC(C)C)C(=O)O[C@H](Cc2ccc(CN3CCOc4ccccc43)cc2)C(=O)N(C)[C@@H](CC(C)C)C(=O)O[C@H](C)C(=O)N1C` [Example 9-26, (3S,6R,9S,12R,15S,18R,21S,24R)-6,18-bis(4-((2,3-dihydro-4H-benzo[b][1,4]oxazin-4-yl)methyl)benzyl)-3,9,15,21-tetraisobutyl-4,10,12,16,22,24-hexamethyl-1,7,13,19-tetraoxa-4,10,16,22-tetraazacyclotetracosan-2,5,8,11,14,17,20,23-octaone] had a Vd of 0.6 L/kg, a clearance of 0.1 mL/min/kg, a half-life of 106 h and a Cmax of 71 ng/mL. In data set [2], this compound returned an F of 1%. Further, the minimal effective concentration in data set [3] lay in the range of 0.0001 to 0.001 µM.

The term half-life denotes the time in which the quantity being followed falls by half. Read a high half-life as slow decline. A word on the Cmax: it is the highest concentration seen after dosing.
